Results: paper PMC8050080, “Cannabis sativa terpenes are cannabimimetic and selectively enhance cannabinoid activity” (Scientific Reports, 2021)

Columns and labels:
[1] = target: CB1 (Homo sapiens, UniProt P21554); test: biochemical; assay type: binding; settings: CB1-CHO membranes, Fig. 8A
[2] = system: male and female CD-1 mice; test: Open field test (hypolocomotion); settings: for mobile time of terpene combined with WIN55,212-2: 200 mg/kg terpene + 5.6 mg/kg WIN55,212-2, Fig. 5; for locomotor activity vs baseline / distance traveled and mobile time, experiment without baseline recording: 200 mg/kg terpene or 5.6 mg/kg WIN55,212-2 i.p.; for locomotor activity vs baseline: compared to baseline values, Fig. S2C,D, confounded by habituation; for distance traveled and mobile time, experiment without baseline recording: vs Vehicle, Fig. S3A,B
Method: All experiments were performed on male and female CD-1 (a.k.a. ICR) mice obtained from Charles River in age-matched cohorts of 5–6 weeks of age. […] The animals were maintained in an AAALAC-accredited vivarium at the University of Arizona in temperature and humidity-controlled rooms on a 12-h light/dark cycle. Standard chow and water were available ad libitum. […] Mice were randomized to treatment group by randomization of mice to cages upon arrival, and block random assignment of cages to treatment group. The experimenter was blinded to treatment group by the delivery of coded drug vials. The groups were not decoded until all data had been acquired.
The open field test was used to determine potential hypolocomotive properties induced by terpene and cannabinoid treatment. The open field box was a white box with an open top and black floor. The tracking area was 30 cm × 28 cm. Mice were baselined by placing the mouse in the center of the box and recording from a video camera ~ 1.5 m above for a period of 5 min. Mice were then injected with compound and placed back in the open field box 10–15 min post-injection. In follow-up experiments, mice were not baselined, injected with compound, and placed in the open field box from 10 to 15 min. The total distance traveled and mobile time of mice were analyzed using AnyMaze software.

[3] = system: male and female CD-1 mice; test: Tail flick thermal latency test (antinociception); assay type: in vivo; settings: for tail flick antinociception (efficacy in words): terpenes 50–200 mg/kg i.p. (β-Caryophyllene 100 mg/kg), WIN55,212-2 up to 10 mg/kg, over 2 h
Method: Antinociception was tested using the tail flick thermal latency test. Mice were baselined by gently restraining the animal and lowering the distal portion of the tail into a water bath set to 52 °C or 47 °C where stated, and the latency to flick the tail recorded with a stopwatch, with a 10 s cutoff. Mice were then injected with compounds intraperitoneally (i.p.). Thermal latency was then assessed over a time course of 2 h, or at a single time-point as noted. […] For assays using terpene/WIN55,212-2 co-treatment, WIN55,212-2 was co-administered with terpene in the same solution.

[4] = system: male and female CD-1 mice; test: Catalepsy ring test; assay type: in vivo; settings: for effect of istradefyllene pretreatment on catalepsy response: 10 mg/kg istradefyllene; for effect of istradefyllene pretreatment on catalepsy response / effect of rimonabant pretreatment on catalepsy response: 200 mg/kg terpene, Fig. 4; for effect of rimonabant pretreatment on catalepsy response: 10 mg/kg rimonabant; for catalepsy vs baseline: 15 min after i.p. 200 mg/kg terpene or 5.6 mg/kg WIN55,212-2, Fig. S2B; for catalepsy of terpene combined with WIN55,212-2: 200 mg/kg terpene + 5.6 mg/kg WIN55,212-2, Fig. 4
Method: Potential induction of catalepsy was assessed using the ring test as described. Mice were baselined, injected with compound, and then assessed with the ring test at 15 min post-injection. Data was represented as the percentage (%) of time in a “cataleptic” immobile state over the 5 min observation period.

[5] = system: male and female CD-1 mice; test: Hypothermia (core temperature, rectal thermometer); assay type: in vivo; settings: for hypothermia vs baseline: 30 min after i.p. 200 mg/kg terpene or 5.6 mg/kg WIN55,212-2, Fig. S2A; for effect of rimonabant pretreatment on hypothermia: 10 mg/kg rimonabant, 200 mg/kg terpene or 5.6 mg/kg WIN55,212-2, Fig. 3, S4C
Method: Changes in core temperature were assessed using a lubricated rectal thermometer placed 1.0 cm into the mouse rectum. Temperature was assessed before treatment and 30 min post-treatment.

[6] = system: WT CHO cells; test: ERK phosphorylation (Western) in WT CHO cells; assay type: cell-based; settings: for ERK phosphorylation in WT CHO cells: 500 μM terpene or 10 μM WIN55,212-2, 5 min, Fig. 7B; for rimonabant sensitivity of ERK activation in WT CHO cells: 500 μM terpene after 10 μM rimonabant, Fig. 7C
Method: WT-CHO cells were obtained from ATCC (#CCL-61). CHO cells stably expressing the human CB1 receptor were obtained from PerkinElmer (#ES-110-C) and utilized for western blots (CB1-CHO-C2) or binding assays (CB1-CHO-C3). HitHunter (CB1-CHO-cAMP) and PathHunter (CB-CHO-βarr2) assays were performed on respective CB1-CHO lines, and were a kind gift from Dr. Robert Laprairie[44]. CHO cells stably expressing cloned CB2 (CB2-CHO) were produced by electroporation with the human CB2 N-3xHA tag cDNA (GeneCopoeia). A stable expressing population was selected for with 500 μg/mL G418. CHO cells stably expressing the human mu opioid receptor were obtained from PerkinElmer (#ES-542-C). All cells were grown on 10 cm dishes in DMEM/F-12 50/50 mix w/ L-glutamine and 15 mM HEPES (Corning) containing 10% heat-inactivated fetal bovine serum, 100 units/mL penicillin, 100 units/mL streptomycin, and 400 μg/mL G418 (CB1-CHO-C2, CB1-CHO-C3, CB2-CHO, MOR-CHO); 800 μg/mL G418 (CB1-CHO-cAMP); 800 μg/mL G418 and 300 μg/mL hygromycin B (CB1-CHO-βarr2). WT CHO were grown as stated above without selection antibiotic. Cells were incubated in a humidified incubator at 37 °C with 5% CO2 and were sub-cultured every 2–3 days.
Cells were plated in 6-well plates 24 h prior to the start of the experiments. Cells were serum starved for 1 h then treated for 5 min with compound. In antagonist experiments, cells were pretreated for 5 min before agonist treatment for 5 min. Media was then aspirated, cells were placed on ice, washed with ice-cold PBS once, and lysis buffer (20 mM Tris–HCl, pH 7.4, 150 mM NaCl, 2 mM EDTA, 0.1% SDS, 1% Nonidet P-40, 0.25% deoxycholate, 1 mM sodium orthovanadate, 1 mM PMSF, 1 mM sodium fluoride, and a protease inhibitor cocktail (EMD Millipore)), was added. Cells were scraped and collected. Lysates were vortexed then centrifuged at 13 k rpm at 4 °C for 10 min. Lysates were then processed for Western blots or stored at − 80 °C.
Cell lysate protein was quantified with a modified BCA protein assay using manufacturers protocol (Bio-Rad). Samples (20–30 μg) were ran on precast gels (10% Bis–Tris, Bolt brand, from ThermoFisher). Gels were wet-transferred to nitrocellulose membranes at 30 V for at least 60 min at 4 °C. Blots were blocked with 5% non-fat dry milk in TBS for 30 min, washed 3 × for 5 min with TBS + 0.1% Tween-20 (TBST), and incubated with primary antibody overnight at 4 °C. Primary antibody: pERK and tERK (Cell Signaling) at 1:1000 dilution in 5% BSA in TBST. Blots were then washed 3 × with TBST then incubated with secondary antibodies for 90 min at room temperature. Secondary antibodies: Goat anti-Rabbit 800 W and Goat anti-Mouse 680 diluted at 1:10,000 and 1:20,000 (Licor), respectively, in 5% non-fat milk in TBST. Blots were washed 3X with TBST and 1 × with TBS, then imaged on a Licor Odyssey Fc or Azure Sapphire. Bands were analyzed using Image-J and reported as pERK/tERK normalized to the standard, or simply as pERK/tERK.

[7] = target: T1, human mu opioid receptor (Homo sapiens, UniProt P35372); assay type: cell-based; settings: 500 μM terpene or 10 μM morphine, 5 min, Fig. S13A
T1 construct: host or cells: CHO (MOR-CHO)
Method: Cells were plated in 6-well plates 24 h prior to the start of the experiments. Cells were serum starved for 1 h then treated for 5 min with compound. In antagonist experiments, cells were pretreated for 5 min before agonist treatment for 5 min. […] Cells were scraped and collected. Lysates were vortexed then centrifuged at 13 k rpm at 4 °C for 10 min. Lysates were then processed for Western blots or stored at − 80 °C.
CHO cells were serum starved for 1 hr, then treated with Vehicle, 10 μM morphine, or 500
μM terpene for 5 min. ERK was quantitated and reported as above. Data expressed as the
vs. Vehicle group by 1 Way ANOVA with Dunnett’s post hoc test. B) MOR-CHO cells
serum starved for 1 hr, then pre-treated with Vehicle or 10 μM naloxone for 10 min, then
treated with Vehicle, 10 μM morphine, or 500 μM terpene for 5 min. ERK quantitated,
reported, and normalized as in A (n=3 independent experiments). *, **** = p < 0.05,
0.0001 vs. terpene-alone group for each set by 1 Way ANOVA with Sidak’s post hoc test
(set up as pairwise comparisons between terpene and terpene + naloxone for each set). For
both, representative blots are shown below each graph.

[8] = system: male and female CD-1 mice; test: Cannabinoid tetrad of behaviors (antinociception, hypolocomotion, catalepsy, hypothermia); assay type: in vivo; settings: 5.6 mg/kg WIN55,212-2 after 10 mg/kg rimonabant i.p., Fig. S4
Source text: Our first set of experiments sought to determine whether selected terpenes/terpenoids (α-Humulene, β-Pinene, Linalool [terpenoid], Geraniol [terpenoid], and β-Caryophyllene as a putative cannabinoid receptor type 2 [CB2] agonist control) had activity in the cannabinoid tetrad of behaviors mediated by the CB1 receptor: antinociception, hypolocomotion, catalepsy, and hypothermia. These terpenes were selected based on their quantities in Cannabis sativa, with α-Humulene, β-Pinene, Linalool, and β-Caryophyllene all being found in higher quantities and Geraniol in lower to underdetermined quantities. Although it is not clear if geraniol is present in higher quantities, we nonetheless chose this ligand due to its reported anti-nociceptive activity (e.g.[22]). Terpenes were administered at several doses (50–200 mg/kg) i.p. and assessed in the tail flick assay in male and female CD-1 mice. […]
Antinociception was tested using the tail flick thermal latency test. Mice were baselined by gently restraining the animal and lowering the distal portion of the tail into a water bath set to 52 °C or 47 °C where stated, and the latency to flick the tail recorded with a stopwatch, with a 10 s cutoff. […] Thermal latency was then assessed over a time course of 2 h, or at a single time-point as noted. […]
Potential induction of catalepsy was assessed using the ring test as described. […]

Chain of CB1 (P21554 whole entry): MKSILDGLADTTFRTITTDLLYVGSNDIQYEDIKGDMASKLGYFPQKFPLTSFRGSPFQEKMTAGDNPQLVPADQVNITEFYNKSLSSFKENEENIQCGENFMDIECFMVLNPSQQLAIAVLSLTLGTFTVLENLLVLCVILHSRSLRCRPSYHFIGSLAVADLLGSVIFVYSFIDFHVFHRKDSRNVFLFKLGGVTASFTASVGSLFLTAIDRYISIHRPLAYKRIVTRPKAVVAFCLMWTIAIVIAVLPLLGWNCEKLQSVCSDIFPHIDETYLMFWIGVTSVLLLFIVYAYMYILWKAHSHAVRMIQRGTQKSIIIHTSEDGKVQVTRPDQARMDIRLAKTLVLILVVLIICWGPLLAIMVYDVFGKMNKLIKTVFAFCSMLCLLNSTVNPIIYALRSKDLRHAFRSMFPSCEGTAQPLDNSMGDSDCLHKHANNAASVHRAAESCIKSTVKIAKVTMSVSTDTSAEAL
T1 sequence (P35372 whole entry): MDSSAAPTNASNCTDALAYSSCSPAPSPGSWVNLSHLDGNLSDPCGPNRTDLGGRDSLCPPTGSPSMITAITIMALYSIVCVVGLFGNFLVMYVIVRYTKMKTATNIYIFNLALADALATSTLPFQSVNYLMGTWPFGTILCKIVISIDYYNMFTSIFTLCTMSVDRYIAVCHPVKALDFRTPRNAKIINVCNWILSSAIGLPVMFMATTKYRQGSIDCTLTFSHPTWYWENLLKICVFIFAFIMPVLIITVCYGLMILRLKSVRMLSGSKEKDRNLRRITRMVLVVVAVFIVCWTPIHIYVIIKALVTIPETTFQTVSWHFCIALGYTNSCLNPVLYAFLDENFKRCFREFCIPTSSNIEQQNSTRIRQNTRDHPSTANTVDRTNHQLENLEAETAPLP

SMILES	competition for the orthosteric binding site against CP55,940 [1]	mobile time of terpene combined with WIN55,212-2 [2]	locomotor activity vs baseline [2]	distance traveled and mobile time, experiment without baseline recording [2]	tail flick antinociception (efficacy in words) ([3]; Fig. S1)	effect of istradefyllene pretreatment on catalepsy response [4]	effect of rimonabant pretreatment on catalepsy response [4]	catalepsy vs baseline [4]	hypothermia vs baseline [5]	ERK phosphorylation in WT CHO cells [6]	ERK stimulation in MOR-CHO cells [7]	effect of rimonabant pretreatment on hypothermia [5]	catalepsy of terpene combined with WIN55,212-2 [4]	rimonabant sensitivity of ERK activation in WT CHO cells [6]	other results
C=CC(C)(O)CCC=C(C)C (stereo not shown) [Linalool]	little to no competition	further decrease in mobile time	significant reductions in locomotor activity	reductions in distance traveled and mobile time	dose-dependent low efficacy	partially blocked	small but significant reduction	significant increases in cataleptic behavior	induced significant hypothermia	did not cause ERK phosphorylation	no response	–	–	–	hypolocomotion, antagonist reversal, females ([2]; female mice, 200 mg/kg Linalool, Fig. S8B-C): istradefyllene reversal; hypolocomotion, antagonist reversal, males ([2]; male mice, 200 mg/kg Linalool, Fig. S8B-C): rimonabant reversal; effect of rimonabant pretreatment on tail flick antinociception ([3]; 200 mg/kg terpene i.p. after 10 mg/kg rimonabant, Fig. 2): fully blocked by rimonabant; tail flick, Linalool combined with WIN55,212-2, females ([3]; female mice, 200 mg/kg + 5.6 mg/kg WIN55,212-2, Fig. S8A): a delay in response and no potentiation over Linalool alone; tail flick, Linalool combined with WIN55,212-2, males ([3]; male mice, 200 mg/kg + 5.6 mg/kg WIN55,212-2, Fig. S8A): greater additive effects of combining both that occurred earlier in the time course
Cc1c(C(=O)NN2CCCCC2)nn(-c2ccc(Cl)cc2Cl)c1-c1ccc(Cl)cc1 [Rimonabant, reference compound]	–	–	–	–	–	–	–	–	–	–	–	–	–	–	effect of rimonabant pretreatment on morphine-induced antinociception ([3]; 10 mg/kg rimonabant i.p., 5.6 mg/kg morphine, Fig. S5A,B): no significant effect; effect of rimonabant on baseline thermal latency ([3]; 10 mg/kg rimonabant, water bath 47 °C, 30 min, Fig. S5C): no significant effect
Cc1c(C(=O)c2cccc3ccccc23)c2cccc3c2n1[C@H](CN1CCOCC1)CO3 [WIN55,212-2, reference compound]	–	–	significant reductions in locomotor activity	reductions in distance traveled and mobile time	dose-dependent increases in thermal latency with greater efficacy than any of the tested compounds	–	–	significant increases in cataleptic behavior	induced significant hypothermia	did not cause ERK phosphorylation	–	only partially reversed	–	–	effect of rimonabant on tetrad behaviors induced by the agonist [8]: fully or partially reverse
CCn1c(=O)c2c(nc(/C=C/c3ccc(OC)c(OC)c3)n2C)n(CC)c1=O [istradefyllene, Istradefyllene, reference compound]	–	–	–	–	–	–	–	–	–	–	–	–	–	–	effect of istradefyllene alone on locomotion ([2]; 10 mg/kg i.p., open field after 10 min, Fig. S6B,C): hyperlocomotive effect; effect of istradefyllene alone on temperature ([5]; 10 mg/kg i.p., 30 min, Fig. S6A): small but significant hypothermic
C/C1=C\CC/C(C)=C/CC(C)(C)/C=C/C1 [α-Humulene]	some competition and semi-biphasic properties	further decrease in mobile time	significant reductions in locomotor activity	did not result in significant reductions	–	completely blocked	small but significant reduction	significant increases in cataleptic behavior	induced significant hypothermia	activated ERK	produced ERK stimulation	partially reverse	additive effects	rimonabant-insensitive	efficacy in the tail flick assay ([3]; terpene 50–200 mg/kg i.p., dose-dependent, Fig. S1): 40–50%; effect of istradefyllene pretreatment on hypothermia ([5]; 10 mg/kg istradefyllene, 200 mg/kg terpene, Fig. 3): partially reversed
C=C1CCC2CC1C2(C)C (stereo not drawn) [β-Pinene]	little to no competition	further decrease in mobile time	significant reductions in locomotor activity	reductions in distance traveled and mobile time	low efficacy but not in a dose-dependent manner	completely blocked	no impact	significant increases in cataleptic behavior	induced significant hypothermia	activated ERK	produced ERK stimulation	–	additive effects	rimonabant-insensitive	effect of istradefyllene pretreatment on mobile time ([2]; 10 mg/kg istradefyllene, 200 mg/kg terpene, Fig. 5): significant reversal; effect of istradefyllene pretreatment on distance traveled ([2]; 10 mg/kg istradefyllene, 200 mg/kg terpene, Fig. S7): istradefyllene reversal
